Laboratory results: patent publication US20030022821A1, “Bioactive peptides” (priority 1998, published 2003)
In brackets after ≈: the same amount, converted by molar mass. Several values for one entry are separate records, joined by “and”; a condition that tells them apart may be missing. Identical values can stand only once. Entries after “also recorded” stand apart in the source; their conditions may differ. Like-named read-outs stand apart in the source and are kept apart here. Square brackets hold non-standard residues; d marks the D form. Ends that are not written are not given here. Peptide text beside a SMILES is read from it. * marks the point of attachment. Bip = N[C@@H](Cc1ccc(-c2ccccc2)cc1)C(=O)O; Fmoc = O=C(OCC1c2ccccc2-c2ccccc21)*

Tests used:
[1] = test system: Escherichia coli ATCC 25922; assay type: cell-based
Method in brief: (§1)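 MIC values came from a standard microdilution method using mid-log bacteria at 2×10^6 CFU/ml in 1% Bacto Peptone water. HPLC confirmed actual peptide concentrations in solution, given possible adherence of the cationic peptides to plastic.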

[2] = test system: Staphylococcus aureus ATCC 25923; assay type: cell-based
Method in brief: as §1

[3] = test system: MRSA (methicillin resistant S. aureus); assay type: cell-based
Description: The bacterial strains used were: Escherichia coli ATCC 25922 and Staphylococcus aureus ATCC 25923. All strains were stored at −70° C. The bacteria were grown in 2% Bacto Peptone water (Difco 1807-17-4). All tests were performed with bacteria in mid-logarithmic growth phase. Determination of the minimum inhibitory concentration (MIC) of the peptides for bacterial strains were performed in 1% Bacto Peptone water. A standard microdilution technique with an inoculum of 2×10^6 CFU/ml was used. All assays were performed in triplets. Since the peptides are positively charged and therefore could adhere to the plastic wells, we controlled the actual concentration of the peptides in the solution by HPLC. There was no difference between the concentration of the peptides before or after adding the solution to the plastic wells.
Table 13 below gives the antibacterial activity and toxicity data for some preferred peptides of the invention. MRSA is methicillin resistant S. aureus and MRSE is methicillin resistant S. epidermidis.

normal fibroblasts = assay type: cell-based
[4] = test system: Meth A cells (murine sarcoma cell line); assay: Cytotoxicity on Meth A cells, MTT method; settings: 4 h
Description: Peptide solutions (0.1 ml) were added and the plates incubated at 37° C. for 30 minutes, 4 hours or 24 hours. The cytotoxicity was measured using the MTT method (Mosmann et al., J. Immunol. (1986) 136, 2348-2357).
Cells in the growth phase were harvested and washed in fresh medium and injected subcutaneously into the abdominal region of the mice.
The cytotoxic effect of the peptides on different murine and human tumor cells were measured using the MTT method (Mosmann et al., J. Immunol. (1986) 136, 2348-2357). MTT is a soluble tetrazolium salt yielding a yellow solution when prepared in media or salt solutions lacking phenol red. Dissolved MTT is converted to an insoluble purple formazan by cleavage of the tetrazolium ring by dehydrogenase enzymes. This water insoluble formazan can be solubilized using isopropanol or other solvents and the dissolved material is measured spectrophotometrically. The absorbance was measured as a function of concentration of converted dye.
Cells were maintained in […] medium containing 10% FBS, 1% L-glutamine and 0.1% penicillin and streptomycin. Cells to be used in the assay were grown to confluency, trypsinated and split to single cell suspension, counted and centrifuged at 1500 rpm for 10 min. […][…] of cell suspension was transferred to each well on a 96-well microtiter plate. The cells were stimulated by adding […] of various concentrations of peptides diluted with assay medium to each well. The final concentrations of peptide were for example: 5, 10, 20, 40, 60, 80, 100, and 200 mg/ml. […] As a negative control only medium was added to the cells, and as a positive control (100% killing) 1% triton X-100 was added. Following an incubation period of 4 h., 20 ml MTT dissolved in PBS at a concentration of 5 mg/ml was added to each well, and the plate was incubated further for 2 h. 130 ml of the supernatant were then removed and […] acid alcohol (0.04-0.1 N HCl in isopropanol) added to each well to dissolve the dark blue crystals. The plate was placed on a shaker for 1 h and read spectrophotometrically at 590 nm in a microtiterplate reader using the Softmaxâ program.

human red blood cells = assay: Hemolytic assay; assay type: cell-based; settings: red cells of human

| Compound | IC50 (normal fibroblasts) | IC50 [4] | Mic E-coli ([1]; ATCC 25922) | Mic S. Aureus ([2]; ATCC 25923) | EC50 (human red blood cells) | also measured |
| --- | --- | --- | --- | --- | --- | --- |
| CSCC[C@H](NC(=O)[C@H](CCCNC(=N)N)NC(=O)[C@H](Cc1ccc(-c2ccccc2)cc1)NC(=O)[C@H](CCC(N)=O)NC(=O)[C@H](Cc1ccc(-c2ccccc2)cc1)NC(=O)[C@H](CCCNC(=N)N)NC(=O)[C@H](CCCNC(=N)N)NC(=O)[C@H](CSCNC(C)=O)NC(=O)[C@H](CCCCN)NC(=O)[C@@H](N)Cc1ccccc1)C(=O)N[C@@H](CCCCN)C(=O)N[C@@H](CCCCN)C(=O)N[C@@H](CC(C)C)C(=O)NCC(=O)N[C@@H](C)C(=O)O [LFB Bip6, 8] | – | – | – | – | – | MIC E. coli ([1]; ATCC 25922): 10 µg/mL (≈ 4.67 µM); MIC E. coli ([1]; Table 13, 8): ≧12.5 μg/ml; also recorded: ≧5.8 μM; MIC S. aureus ([2]; Table 13, 8): 3.0 µg/mL (≈ 1.4 µM); MIC MRSA ([3]; Table 13, 8): 2.5 µg/mL; MIC MRSA ([3]; methicillin resistant): 1.2 µM |
| PAIRKAFRWAIRMLKKAA-OH [LFB 14-31A2,6, 10, 17F7I3, 11K16L14R4] | 45 µM | 16 µM | 2.5 µM | 5 µM | 413 µM | – |
| PAWRKAFRWAWRMLKKAA-OH [LFB 14-31A2,6, 10, 17F7K16L14R4] | 17 µM | 6.6 µM | – | 2 µM | 110 µM | Mic E-coli ([1]; Table 17): 2/4 |
| CSCC[C@H](NC(=O)[C@H](CCCNC(=N)N)NC(=O)[C@H](Cc1ccc(-c2ccccc2)cc1)NC(=O)[C@H](CCC(N)=O)NC(=O)[C@H](Cc1c(S(=O)(=O)c2c(C)c(C)c3c(c2C)CCC(C)(C)O3)[nH]c2ccccc12)NC(=O)[C@H](CCCNC(=N)N)NC(=O)[C@H](CCCNC(=N)N)NC(=O)[C@H](CSCNC(C)=O)NC(=O)[C@H](CCCCN)NC(=O)[C@@H](N)Cc1ccccc1)C(=O)N[C@@H](CCCCN)C(=O)N[C@@H](CCCCN)C(=O)N[C@@H](CC(C)C)C(=O)NCC(=O)N[C@@H](C)C(=O)O [LFB Bip8 PMC] | – | – | – | – | – | MIC E. coli ([1]; Table 8): 25 µg/mL (≈ 10.6 µM); MIC E. coli ([1]; Table 13): 15.0 μg/ml and 6.3 μM; MIC S. aureus ([2]; Table 8): 5 µg/mL (≈ 2.11 µM); MIC S. aureus ([2]; Table 13): 2.5 μg/ml and 1.1 μM; MIC MRSA ([3]; Table 13): 2.5 μg/ml and 1.1 μM |
| PAWRKAFRAAARMLKKAA-OH [LFB 14-31A2,6,9, 10, 11, 17F7K16L14R4] | > 489 µM | 110 µM | 30 µM | 30 µM | > 489 µM | – |
| PAWRKAFRAAWRMLKKAA-OH [LFB 14-31A2,6,9, 10, 17F7K16L14R4] | 46.3 µM | 16.2 µM | 10 µM | 5 µM | 382 µM | – |
| PAIRKAFRIAIRMLKKAA-OH | 280 µM | 47 µM | 2.5 µM | 10 µM | > 487 µM | – |
| PAWRKAFRWAIRMLKKAA-OH [LFB 14-31A2,6, 10, 17F7I11K16L14R4] | 15 µM | 6 µM | – | <1 µM | – | Mic E-coli ([1]; Table 17): 2/5 |
| PAWRKAFRKAWRMLKKAA-OH [LFB 14-31A2,6, 10, 17F7K9, 16L14R4] | 58.7 µM | 13.5 µM | 30 µM | 10 µM | > 451 µM | – |
| C[C@@H](NC(=O)[C@H](Cc1c[nH]c2ccccc12)NC(=O)[C@H](CCCNC(=N)N)NC(=O)[C@H](Cc1c[nH]c2ccccc12)NC(=O)[C@@H](C)NC(=O)[C@@H](CCCNC(=N)N)NC(=O)[C@H](N)Cc1ccc(O)cc1)C(=O)N[C@@H](Cc1c[nH]c2ccccc12)C(=O)N[C@@H](CCCNC(=N)N)C(=O)N[C@@H](Cc1c[nH]c2ccccc12)C(=O)N[C@@H](CCCNC(=N)N)C(N)=O (H-[dY][dR][dA]WRW[dA]WRWR-NH2) | – | – | – | – | – | MIC E. coli ([1]; Table 14, peptides with a proportion of D amino acids): 7.5 µg/mL (≈ 4.43 µM); MIC S. aureus ([2]; Table 14): 5 µg/mL (≈ 2.96 µM); MIC MRSA ([3]; Table 14): 2.5 µg/mL |
| PAWRKAARWAWRMLKKAA-OH [LFB 14-31A2,6, 10, 17F7K16L14R4 F7 → A7] | 289 µM | 34.6 µM | 15 µM | 10 µM | > 455 µM | – |
| CSCC[C@H](NC(=O)[C@H](CCCNC(=N)N)NC(=O)[C@H](Cc1c[nH]c2ccccc12)NC(=O)[C@H](CCC(N)=O)NC(=O)[C@H](Cc1c[nH]c2ccccc12)NC(=O)[C@H](CCCNC(=N)N)NC(=O)[C@H](CCCNC(=N)N)NC(=O)[C@H](Cc1ccc(-c2ccccc2)cc1)NC(=O)[C@H](CCCCN)NC(=O)[C@@H](N)Cc1ccccc1)C(=O)N[C@@H](CCCCN)C(=O)N[C@@H](CCCCN)C(=O)N[C@@H](CC(C)C)C(=O)NCC(=O)N[C@@H](C)C(=O)O [LFB Bip3] (H-FK[Bip]RRWQWRMKKLGA-OH; N-terminus assumed) | – | – | – | – | – | MIC E. coli ([1]; Table 13, listed as LPB Bip 3): 12.5 µg/mL (≈ 5.91 µM); MIC MRSA ([3]; Table 13, listed as LPB Bip 3): 2.5 µg/mL; MIC MRSA ([3]; methicillin resistant): 1.2 µM |
| PAIRKAFRWAWRMLKKAA-OH [LFB 14-31A2,6, 10, 17F7I3K16L14R4] | 20 µM | 9 µM | – | – | 323 µM | Mic E-coli ([1]; Table 17): 2/4; Mic S. Aureus ([2]; Table 17): 2/4 |
| PAWRKAFRIAWRMLKKAA-OH [LFB 14-31A2,6, 10, 17F7I9K16L14R4] | 26 µM | 12 µM | 5 µM | <1 µM | – | – |
| PAWRKAFRKAKRMLKKAA-OH [LFB 14-31A2,6, 10, 17F7K9, 11, 16L14R4] | > 463 µM | > 300 µM | – | – | > 463 µM | – |
| N=C(N)NCCC[C@@H](N)C(=O)N[C@@H](Cc1c[nH]c2ccccc12)C(=O)N[C@H](Cc1c[nH]c2ccccc12)C(=O)N[C@@H](CCCNC(=N)N)C(=O)N[C@H](Cc1ccc(O)cc1)C(=O)N[C@@H](Cc1c[nH]c2ccccc12)C(=O)N[C@H](CCCNC(=N)N)C(N)=O [arg-TRP-trp-ARG-tyr-TRP-arg-CONH2] (H-[dR]W[dW]R[dY]W[dR]-NH2; N-terminus assumed) | – | – | – | – | – | MIC E. coli ([1]; ATCC 25922): 7.5 µg/mL (≈ 6.21 µM); MIC S. aureus ([2]; ATCC 25923): 5 µg/mL (≈ 4.14 µM); MIC MRSA ([3]; methicillin resistant): 2.5 µg/mL |
| PAWRKAFRIAIRMLKKAA-OH [LFB 14-31A2,6, 10, 17F7I9, 11K16L14R4] | 26 µM | 22 µM | – | – | – | – |
| PAKRKAFRWAWRMLKKAA-OH [LFB 14-31A2,6, 10, 17F7K3, 16L14R4] | 230 µM | 230 µM | – | – | > 451 µM | – |
| PAWRKAFRWAKRMLKKAA-OH [LFB 14-31A2,6, 10, 17F7K11, 16L14R4] | 30.7 µM | 7.9 µM | 5 µM | <2.5 µM | > 451 µM | – |
| PAIRKAFRIAWRMLKKAA-OH [LFB 14-31A2,6, 10, 17F7I3, 9K16L14R4] | 108 µM | 36 µM | 5 µM | 5 µM | > 470 µM | – |
| PAWRKAFRWAARMLKKAA-OH [LFB 14-31A2,6, 10, 11, 17F7K16L14R4] | 46.3 µM | 11.1 µM | 10 µM | >2.5 µM | 278 µM | – |
| CSCC[C@H](NC(=O)[C@H](CCCNC(=N)N)NC(=O)[C@H](Cc1c[nH]c2ccccc12)NC(=O)[C@H](CCC(N)=O)NC(=O)[C@H](Cc1c[nH]c2ccccc12)NC(=O)[C@H](CCCNC(=N)N)NC(=O)[C@H](CCCNC(=N)N)NC(=O)OCC1c2ccccc2-c2ccccc21)C(=O)N[C@@H](CCCCN)C(=O)N[C@@H](CCCCN)C(=O)N[C@@H](CC(C)C)C(=O)O [LFB 20-29 FMOC] (Fmoc-RRWQWRMKKL-OH) | – | – | – | – | – | MethA IC50 [4]: 140 µg/mL; MIC E. coli ([1]; ATCC 25922): 5 µg/mL (≈ 2.92 µM); MIC S. aureus ([2]; ATCC 25923): 10 µg/mL (≈ 5.85 µM); % Hemolysis 10 μg/ml (human red blood cells): 10.3%; % Hemolysis 100 μg/ml (human red blood cells): 28.2% |
| RRWAWRMKK-OH [LFB 20-28 A4] | – | – | – | – | – | MethA IC50 [4]: 500 µg/mL; MIC E. coli ([1]; ATCC 25922): >100 µg/mL; MIC S. aureus ([2]; ATCC 25923): >100 µg/mL; % Hemolysis 10 μg/ml (human red blood cells): 0%; % Hemolysis 100 μg/ml (human red blood cells): 1.68% |
| PAARKAFRWAWRMLKKAA-OH [LFB 14-31A2,3,6, 10, 17F7K16L14R4] | 190 µM | 24.1 µM | 15 µM | 10 µM | > 463 µM | – |
